In patent US12297235B2, “Synthetic peptide compounds and methods of use” (REALTA HOLDINGS, LLC, priority 2015, dated 2025):
Entries after “also recorded” stand apart in the source; their conditions may differ. Read-outs that look alike come from different tables or passages of the source.

Tests used:
HSV-1 = test: HSV-1-GFP infection of CV-1 cells, flow cytometry; format: cell-based; details: 16 hours
Procedure: CV-1 cells were infected with HSV-1-GFP for 16 hours. Post-infection, CV-1 cells were detected by flow cytometry (FIG. 33). […] Acyclovir (the standard of care for severe HSV-1 infections) was also added as a control at the same molar ratio.

Solubility in water = format: physicochemical; details: Table 7, PEGylated and Sar/Ala substitution peptides
[1] = Complement-mediated hemolysis of type B erythrocytes by type O donor plasma (ATR in vitro model); format: biochemical, human; details: highly hemolytic type-O plasma, dose-response, maximum
Procedure: Plasma from both donors were diluted with GVBS++ (veronal buffered saline with 0.1% gelatin, 0.15 mM CaCl2 and 1 mM MgCl2) and incubated with purified erythrocytes from a B+ donor at 37° C. for 1 hour. Free hemoglobin was measured by spectrophotometer at 412 nm.

[2] = Single-dose toxicology, maximum deliverable dose; format: in vivo, rat; details: 60 mg [240 mg/kg] i.v.
[3] = format: biochemical, human; details: 0.77 mM peptide in factor B-depleted serum; standardized to water or DMSO; Table 6
Procedure: (§1) Peptides were diluted to 0.77 mM in factor B-depleted human sera (Complement Technologies, Inc.) and incubated for 1 hour at 37° C. These peptides were then diluted with GVBS^++ to equal 2.5% serum, of which 0.25 ml was combined with 0.4 ml of GVBS^++ and 0.1 ml of sensitized sheep red blood cells (RBCs) and again incubated for 1 hour at 37° C. The procedure was stopped by the addition of 4.0 ml of GVBS^−− centrifuged for 5 minutes at 1,620×g, and the absorbance of the supernatants was read at 412 nm in a spectrophotometer. The percent lysis of each sample was standardized to that of the serum only control.
(§2) The final concentration of peptide in factor B-depleted serum was 0.77 mM. Each peptide was evaluated in triplicate and the mean values are reported. […] In the hemolytic assay, soluble peptides are standardized to water and insoluble peptides standardized to DMSO.
(§3) Polar Assortant peptides were serially diluted in undiluted factor B-depleted human sera (Complement Technologies, Inc.) and incubated for 1 hour at 37° C. Water, GVBS^++ and DMSO were included as controls. These peptides were then diluted with GVBS^++ to equal 2.5% serum, of which 0.25 ml was combined with 0.4 ml of GVBS^++ and 0.1 ml of sensitized sheep red blood cells (RBCs) and again incubated for 1 hour at 37° C. The procedure was stopped by the addition of 4.0 ml of GVBS^−−, centrifuged for 5 minutes at 1,620×g, and the absorbance of the supernatants was read at 412 nm in a spectrophotometer. The percent lysis of each sample was standardized to that of the serum only control.
(§4) The final concentration of peptide in factor B-depleted serum was 0.77 mM. […] In the hemolytic assay, soluble peptides were standardized to water and insoluble peptides standardized to DMSO.
(§5) The final concentration of peptide in factor B-depleted serum was 0.77 mM. […] In the hemolytic assay, soluble peptides are standardized to water and insoluble peptides standardized to DMSO.

[4] = test system: complement activation in factor B-depleted human sera; format: biochemical; details: 0.77 mM peptide in factor B-depleted serum; standardized to water or DMSO; Table 7
Procedure: as §1, §2, §3, §4, §5

[5] = 40 mg [160 mg/kg] i.v.
From the text: Eight animals were sacrificed at day 3, and ten were sacrificed at day 14.

[6] = test system: complement-mediated hemolysis of transfused huRBCs; test: Rat AIHTR model, xenotransfusion of human RBCs; format: in vivo, Wistar rat; details: prophylaxis; 40 mg PA-dPEG24 vs NS at 5 and 20 minutes (P≤0.05); CVF 130 μg i.p. 24 hours before
Procedure: This process generates 1 ml huRBCs at 80% hematocrit, which was given as a 15% transfusion to the rats.
For both experiments, animals allotted to the saline control group received NS prior to huRBC transfusion whereas the CVF group received 130 μg CVF (Complement Technologies, Inc.) intra-peritoneum (LP.) 24 hours prior to the huRBC transfusion.
Using weight-based doses of ketamine and acepromazine, animals were sedated throughout the course of the experiment with periodic monitoring of vital signs. Blood samples were collected into EDTA microtainer tubes (BD) from the animals prior to the huRBC transfusion and then at 30 seconds, 5 minutes, 20 minutes, 60 minutes and 120 minutes after the huRBC transfusion. […]
Flow cytometry was performed on the collected RBCs using a FACS Calibur flow cytometer (Becton Dickinson, Franklin Lakes, NJ) with DXP 8 Color 488/637/407 Upgrade (Cytek Development, Fremont, CA). […] Data was analyzed using FlowJo X version 10.0.7r2 (FlowJo LLC, Ashland, OR). […]
For bilirubin measurements, the pre-bleed and 120 minute plasma samples from the prophylaxis (n=8) and NS (n=7) groups were analyzed for the amount of bilirubin present using the Bilirubin Assay Kit (Sigma-Aldrich, St. Louis, MO) in half the manufacturer's recommend volume. […]

[7] = test system: hypoxic ischemic brain injury; format: in vivo, Wistar rat; details: CVF injection before ligation/hypoxia

## Nc1nc2c(ncn2COCCO)c(=O)[nH]1 [Acyclovir]
HSV-1
  Inhibition of HSV-1 replication: never able to completely inhibit replication

## CC[C@H](C)[C@H](N)C(=O)N[C@@H](C)C(=O)N[C@@H](CC(C)C)C(=O)N[C@H](C(=O)N[C@@H](CC(C)C)C(=O)N[C@@H](CCC(=O)O)C(=O)N1CCC[C@H]1C(=O)N[C@H](C(=O)N[C@@H](CS)C(=O)N[C@@H](CS)C(=O)N[C@@H](CCC(N)=O)C(=O)N[C@@H](CCC(=O)O)C(=O)N[C@@H](CCCNC(=N)N)C(=O)N[C@@H](C)C(=O)N[C@@H](C)C(=O)NCCOCCOCCOCCOCCOCCOCCOCCOCCOCCOCCOCCOCCOCCOCCOCCOCCOCCOCCOCCOCCOCCOCCOCCOCCC(=O)O)[C@@H](C)CC)[C@@H](C)CC [PA-dPEG24]
Solubility in water
  Solubility in water: Yes
[1]
  percent inhibition of hemolysis: > 95%
[2]; 48 Hr (n = 6)
  ALT: 44.0 U/L
  AST: 69.0 U/L
  AlkPhos: 194 U/L
  BUN: 15.8 mg/dL
  Bilirubin: 0.1 mg/dL
  CPK: 142 U/L
  Creatinine: 0.3 mg/dL
  GGT: 1 U/L
  Lipase: 10.3 U/L
  Platelets: 1045 10^3/μL
  RBC: 5.3 10^6/μL
[2]; Day 7 (n = 6)
  ALT: 76.3 U/L
  AST: 84.3 U/L
  AlkPhos: 147 U/L
  BUN: 13.5 mg/dL
  Bilirubin: 0.1 mg/dL
  CPK: 316 U/L
  Creatinine: 0.4 mg/dL
  GGT: 1 U/L
  Lipase: 8.5 U/L
  Platelets: 623 10^3/μL
  RBC: 5.8 10^6/μL
[2]; Day 14 (n = 6)
  ALT: 55.8 U/L
  AST: 104 U/L
  AlkPhos: 154 U/L
  BUN: 14.7 mg/dL
  Bilirubin: 0.1 mg/dL
  CPK: 580 U/L
  Creatinine: 0.4 mg/dL
  GGT: 1 U/L
  Lipase: 9.7 U/L
[2]; first 24 hours, 48 hours, day 7 or day 14
  Blood work (CBC and complete blood chemistry) toxicities: No toxicities
[3]
  hemolysis: 2.99%
[4]
  Hemolysis (%): 2.99%
[5]; 48 Hr (n = 8)
  ALT: 62.8 U/L
  AST: 108 U/L
  AlkPhos: 104 U/L
  BUN: 17.8 mg/dL
  Bilirubin: 0.1 mg/dL
  CPK: 538 U/L
  Creatinine: 0.3 mg/dL
  GGT: 1.0 U/L
  Lipase: 11.8 U/L
  Platelets: 987 10^3/μL
  RBC: 5.8 10^6/μL
[5]; Day 14 (n = 10)
  ALT: 77.4 U/L
  AST: 111 U/L
  AlkPhos: 115 U/L
  BUN: 13.2 mg/dL
  Bilirubin: 0.1 mg/dL
  CPK: 592 U/L
  Creatinine: 0.3 mg/dL
  GGT: 1.1 U/L
  Lipase: 6.4 U/L
  Platelets: 825 10^3/μL
  RBC: 6.6 10^6/μL
[5]; day 3 and day 14
  Organ histology: no histological evidence for toxicity
[5]; pretreatment vs day 3 or day 14
  Blood chemistry assay results (CBC, superchem, coagulation): no differences

## cobra venom factor [CVF]
[6]
  Free hemoglobin in plasma: low levels of free hemoglobin
[7]
  Systemic complement activity and brain injury: almost completely eliminated; also recorded: almost completely attenuated brain injury
